Data: US20220233503A1, “METHODS OF TREATING SEPSIS WITH SYNAPTIC VESICLE 2A AND/OR 2B BINDING CHEMICAL ENTITIES” (INSTITUT PASTEUR, priority 2016, published 2022)
Like-named read-outs stand apart in the source and are kept apart here.

Experiments:
[1] = system: pro- and anti-inflammatory cytokine levels in Serum; experiment: Cytokine multiplex in serum after sepsis; assay type: in vivo, mice; settings: 24 hours after sepsis induction
Experimental: Cytokine multiplex: Brain samples were weighed and unfrosted in 100 μl of extraction buffer (PBS 1×, complete protease inhibitor, sigma-aldrich, triton 0.1%) processed in 2 ml Lysing Matrix A tubes with FastPrep-24 (MP biomedicals, Germany). Tubes were centrifuged at 20000 g at 4° C. and supernatant was collected and protein concentration was determined with light absorbance at 280 nm using a Nanodrop Lite Spectrophotometer (Thermo Scientific). Sera were used undiluted. Cytokines were measured using a Bio-Plex System and Mouse Cytokine Standard 23-Plex Group 1 kit following manufacturer's recommendations. Raw datas were analyzed by dividing the concentration of cytokine with protein concentration in lyzate and weight of sample measured on precision balance. Then every cytokine concentrations are presented as a ratio compared to the untreated sepsis group.

[2] = system: Inducible NO synthase gene (inos); assay type: cell-based, murine; settings: 24 hours
Description: NO: 53) and anti-sense primer:[…] NO: 54). […] ID NO: 55) and anti-sense primer […] NO: 56). […] NO: 57) and anti-sense primer:[…] NO: 58).

[3] = system: CLP mice; experiment: Splash test after sepsis; assay type: in vivo; settings: levetiracetam vs placebo treated CLP mice
Experimental: Splash test: Mice were placed in a new cage 45 minutes before testing in the experimental room. They were then held onto a grid and 200 μl of sucrose 10% solution was spray on their back's fur. They were then placed in the home cage for 5 minutes. The latency before the first time mice groomed, the number of cleaning sessions and the total amount of time spent cleaning during the 5 minute test were measured. Mice were then placed back in their cage. Datas are presented as Mean±SEM.
FIG. 2: Innate anxiety behavior and depressive phenotype was investigated with the elevated plus maze and splash test.

CC[C@@H](C(N)=O)N1CCCC1=O (single isomer, unassigned) [levetiracetam]
cytokine concentration in plasma [1]: No significant effect | inos expression ([2]; high dose LPS challenge): failed to modulate | inos expression ([2]; high dose levetiracetam, low dose LPS challenge): lowered | depressive phenotype (splash test) [3]: No difference
